Measurements published in ChEMBL document CHEMBL1201862, “PubChem BioAssay data set” (2004).
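Test compounds were applied to cells in 96-well plates for 48 hours at 5 doses. At the GI50, growth is halved.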 Calls of active or inactive are those of the source. Rule as the data show it: active = GI50 up to about 1.1 µM and inactive = higher.

Legend:
Assay in all cases: NCI anticancer screen, dose series, 48 h
K562 = system: K562
SK-MEL-2 = system: SK-MEL-2
SK-MEL-5 = system: SK-MEL-5
EKVX = system: EKVX
ACHN = system: ACHN
SNB-75 = system: SNB-75
NCI-H460 = system: NCI-H460
COLO 205 = system: COLO 205
U-251 = system: U-251
SW-620 = system: SW-620
A549 = system: A549
A498 = system: A498
DLD-1 = system: DLD-1
MOLT-4 = system: MOLT-4
NCI-H23 = system: NCI-H23
UACC-257 = system: UACC-257
CAKI-1 = system: CAKI-1
MDA-N = system: MDA-N
SR = system: SR
MCF7 = system: MCF7

Structure (SMILES) | GI50 (K562) | GI50 (SK-MEL-2) | GI50 (SK-MEL-5) | GI50 (EKVX) | GI50 (ACHN) | GI50 (SNB-75) | GI50 (NCI-H460) | GI50 (COLO 205) | GI50 (U-251) | GI50 (SW-620) | GI50 (A549) | GI50 (A498) | GI50 (DLD-1) | GI50 (MOLT-4) | GI50 (NCI-H23) | GI50 (UACC-257) | GI50 (CAKI-1) | GI50 (MDA-N) | GI50 (SR) | GI50 (MCF7)
CC1(C)OCC(C(O)C2OC(C)(C)OC2/C=N\O)O1 (stereo not given) | > 100 µM (inactive) | > 100 µM (inactive) | > 100 µM (inactive) | > 100 µM (inactive) | > 100 µM (inactive) | > 100 µM (inactive) | > 100 µM (inactive) | > 100 µM (inactive) | > 100 µM (inactive) | > 100 µM (inactive) | > 100 µM (inactive) | > 100 µM (inactive) | > 100 µM (inactive) | > 100 µM (inactive) | > 100 µM (inactive) | > 100 µM (inactive) |  |  |  | 
CC1=CC(C)(C)N=C2SC(c3ccc(Cl)cc3)=NN12 | 21.4 µM (inactive) | 43.6 µM (inactive) | 15.5 µM (inactive) | 3.85 µM (inactive) | 27.9 µM (inactive) |  | 29.2 µM (inactive) | 41.1 µM (inactive) | 23 µM (inactive) | 32.1 µM (inactive) | 40 µM (inactive) | 25.8 µM (inactive) | 19.5 µM (inactive) | 14.9 µM (inactive) | 15.5 µM (inactive) | 29.4 µM (inactive) | 27.9 µM (inactive) |  |  | 
Sc1nnc(COc2ccc(Cl)cc2)o1 | > 100 µM (inactive) |  | > 100 µM (inactive) | > 100 µM (inactive) | > 100 µM (inactive) | > 100 µM (inactive) | > 100 µM (inactive) | > 100 µM (inactive) | > 100 µM (inactive) | 15.5 µM (inactive) | > 100 µM (inactive) | > 100 µM (inactive) | > 100 µM (inactive) | > 100 µM (inactive) | > 100 µM (inactive) | > 100 µM (inactive) | > 100 µM (inactive) |  |  | 
Cc1c2ccncc2c(C)c2c1[nH]c1ccc(O)c(OCC(F)(F)F)c12 | 3.16 µM (inactive) | 12 µM (inactive) | 5.56 µM (inactive) | 10.3 µM (inactive) |  | 9.93 µM (inactive) | 2.18 µM (inactive) | 11.9 µM (inactive) | 2.7 µM (inactive) | 3.55 µM (inactive) | 3.9 µM (inactive) | 15.2 µM (inactive) | 8 µM (inactive) | 2.01 µM (inactive) | 6.1 µM (inactive) | 10.6 µM (inactive) | 9.62 µM (inactive) |  |  | 
CCOC(=O)CCn1[nH]c(=O)c(Cl)c(Cl)c1=O | > 100 µM (inactive) | > 100 µM (inactive) | > 100 µM (inactive) | > 100 µM (inactive) | > 100 µM (inactive) | > 100 µM (inactive) | > 100 µM (inactive) | > 100 µM (inactive) | > 100 µM (inactive) | > 100 µM (inactive) | > 100 µM (inactive) | > 100 µM (inactive) | > 100 µM (inactive) |  | > 100 µM (inactive) | > 100 µM (inactive) | > 100 µM (inactive) |  |  | 
Cc1cc(-c2nc3cc(F)ccc3s2)ccc1N | > 49.2 µM (inactive) | 34.6 µM (inactive) | 42.4 µM (inactive) | 11.2 µM (inactive) | 22.4 µM (inactive) | 20.4 µM (inactive) | < 0.017 µM (active) | 8.69 µM (inactive) | 24.2 µM (inactive) | > 100 µM (inactive) | 6.17 µM (inactive) | 2 µM (inactive) |  | 34.2 µM (inactive) | 2.79 µM (inactive) | 29.9 µM (inactive) | 23.6 µM (inactive) | > 46.1 µM (inactive) | < 0.0106 µM (active) | < 0.01 µM (active)
Cc1nc2ccc(Cl)cc2c2c1CCN2c1ccc(F)cc1 | 5.35 µM (inactive) | 23 µM (inactive) | 7.87 µM (inactive) | 45.2 µM (inactive) | 17.7 µM (inactive) | 0.0266 µM (active) | 7.03 µM (inactive) | 9.95 µM (inactive) | 45.8 µM (inactive) | 27.1 µM (inactive) | 43.5 µM (inactive) | 0.891 µM (active) |  | 4.72 µM (inactive) | 20.2 µM (inactive) | 14.3 µM (inactive) | 18.4 µM (inactive) | 7 µM (inactive) | 13.1 µM (inactive) | 12.2 µM (inactive)
CC(NC(=O)N(C)C)NC(=O)N(C)C | > 10 µM (inactive) | > 10 µM (inactive) | > 10 µM (inactive) | > 10 µM (inactive) | > 10 µM (inactive) | > 10 µM (inactive) | > 10 µM (inactive) | > 10 µM (inactive) | > 10 µM (inactive) | > 10 µM (inactive) | > 10 µM (inactive) | > 10 µM (inactive) |  | > 10 µM (inactive) | > 10 µM (inactive) | > 10 µM (inactive) | > 10 µM (inactive) | > 10 µM (inactive) | > 10 µM (inactive) | > 10 µM (inactive)
OCCCNCC(O)c1ccc(OCc2ccccc2)c(OCc2ccccc2)c1 (stereo not given) | 8.45 µM (inactive) | 8.02 µM (inactive) | 7.03 µM (inactive) | 15 µM (inactive) | 10.4 µM (inactive) | 6.12 µM (inactive) | 7.52 µM (inactive) | 4.76 µM (inactive) | 9.75 µM (inactive) | 8.34 µM (inactive) | 11.6 µM (inactive) | 11.9 µM (inactive) |  | 8.3 µM (inactive) | 17.5 µM (inactive) | 11.2 µM (inactive) | 17.6 µM (inactive) | 9.64 µM (inactive) | 10.9 µM (inactive) | 8.04 µM (inactive)
COC(=O)/C=C1/OC(c2ccc(OC)cc2)=C(Cl)C1=O | 2.73 µM (inactive) | 17.2 µM (inactive) | 14 µM (inactive) | 19.1 µM (inactive) | 17.3 µM (inactive) | 17.9 µM (inactive) | 18.4 µM (inactive) | 9.91 µM (inactive) | 9.1 µM (inactive) | 12.4 µM (inactive) | 23.7 µM (inactive) | 22.5 µM (inactive) |  | 2.96 µM (inactive) | 17.6 µM (inactive) | 21.6 µM (inactive) | 13.5 µM (inactive) | 16.7 µM (inactive) | 1.61 µM (inactive) | 8.32 µM (inactive)
CC(C)=CCC/C(C)=C/CC/C(C)=C/CCN(C)CCO | 1.54 µM (inactive) | 13.2 µM (inactive) | 1.89 µM (inactive) | 16.8 µM (inactive) | 10.8 µM (inactive) | 7.43 µM (inactive) | 4.78 µM (inactive) | 1.72 µM (inactive) | 3.3 µM (inactive) | 3.58 µM (inactive) | 9.77 µM (inactive) | 14.2 µM (inactive) |  | 3.44 µM (inactive) | 11.6 µM (inactive) | 8.24 µM (inactive) | 6.32 µM (inactive) | 3.75 µM (inactive) | 6.35 µM (inactive) | 2.45 µM (inactive)
CC1(C)C2CC3C(C)(C2)C31c1cc(Cl)ccc1N (stereo not given) | 10.5 µM (inactive) | 15 µM (inactive) | 14.2 µM (inactive) | 13.7 µM (inactive) | 15.6 µM (inactive) | 11.9 µM (inactive) | 15.1 µM (inactive) | 19.1 µM (inactive) | 15.2 µM (inactive) | 15 µM (inactive) | 11.9 µM (inactive) | 17.7 µM (inactive) |  | 8.36 µM (inactive) | 12.3 µM (inactive) | 13.4 µM (inactive) | 15.6 µM (inactive) | 12.2 µM (inactive) | 6.79 µM (inactive) | 13.4 µM (inactive)
OCC1=CC(NC2CC(CO)C(O)C(O)C2O)C(O)C(O)C1O (stereo not given) | > 100 µM (inactive) |  |  | > 100 µM (inactive) | > 100 µM (inactive) | > 100 µM (inactive) | > 100 µM (inactive) | > 100 µM (inactive) | > 100 µM (inactive) | > 100 µM (inactive) | > 100 µM (inactive) |  | > 100 µM (inactive) | > 100 µM (inactive) | > 100 µM (inactive) | > 100 µM (inactive) |  |  |  | 
CN(C)CCNC(=O)c1cccc2[nH]c(-c3ccncc3)nc12 | 2.64 µM (inactive) | 4.28 µM (inactive) | 2.75 µM (inactive) | 12.4 µM (inactive) | 6.53 µM (inactive) | 7.33 µM (inactive) | 2.78 µM (inactive) | 1.6 µM (inactive) | 3.1 µM (inactive) | 3.19 µM (inactive) | 5.78 µM (inactive) | 4.05 µM (inactive) |  | 3.56 µM (inactive) | 8.39 µM (inactive) | 1.83 µM (inactive) | 2.55 µM (inactive) | 1.74 µM (inactive) | 3.38 µM (inactive) | 3.44 µM (inactive)
CCOc1ccccc1/C=C(/C#N)C(N)=O | 36.2 µM (inactive) | > 100 µM (inactive) | 78.3 µM (inactive) | > 100 µM (inactive) | > 100 µM (inactive) | > 100 µM (inactive) | > 100 µM (inactive) | > 100 µM (inactive) | > 100 µM (inactive) | 60 µM (inactive) | > 100 µM (inactive) | > 100 µM (inactive) |  | 83.9 µM (inactive) | > 100 µM (inactive) | > 100 µM (inactive) | > 100 µM (inactive) | 18.7 µM (inactive) | 23.9 µM (inactive) | 41.7 µM (inactive)
CC1(C)C2C=CC1C(=O)CC2 (stereo not given) | > 100 µM (inactive) | > 100 µM (inactive) | > 100 µM (inactive) | > 100 µM (inactive) | > 100 µM (inactive) | > 100 µM (inactive) | > 100 µM (inactive) |  | > 100 µM (inactive) | > 100 µM (inactive) | > 100 µM (inactive) | > 100 µM (inactive) | > 100 µM (inactive) | > 100 µM (inactive) | > 100 µM (inactive) | 49.9 µM (inactive) | > 100 µM (inactive) |  |  | 
